Measured values reported in patent publication US20100029657A1, “Bridged, Bicyclic Heterocyclic or Spiro Bicyclic Heterocyclic Derivatives of Pyrazolo[1, 5-A]Pyrimidines, Methods for Preparation and Uses Thereof” (Wyeth, priority 2008, published 2010).
pIC50: −log10 of the molar value. Counter-ions that a name gives are not always drawn.

The compounds below were run against T1, Flag/GST-tagged recombinant human B-Raf (Homo sapiens, UniProt P15056) (assay: B-Raf kinase assay (phosphorylation of GST-MEK1, phospho-MEK1 antibody/Europium detection)). Conditions: B-Raf IC50 Data for compounds of Formula A; read-out: Mean IC50.
T1 construct: Flag; GST; made in house; host or cells: Sf9 insect cells (B-Raf); E. coli (MEK1-GST)
Format: biochemical
Outline: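 Active B-Raf (0.2 nM) phosphorylates GST-MEK1 in 20 mM MOPS pH 7.2 buffer with DTT, vanadate and 0.01% Triton X-100. The Mg/ATP cocktail (200 μM ATP, 40 mM MgCl2) is added, then incubation runs 45 min at RT. Product is captured on anti-GST plates and detected by anti-phospho-MEK1 plus Europium-anti-rabbit fluorescence, giving % inhibition per concentration.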

T1 sequence (P15056 whole entry): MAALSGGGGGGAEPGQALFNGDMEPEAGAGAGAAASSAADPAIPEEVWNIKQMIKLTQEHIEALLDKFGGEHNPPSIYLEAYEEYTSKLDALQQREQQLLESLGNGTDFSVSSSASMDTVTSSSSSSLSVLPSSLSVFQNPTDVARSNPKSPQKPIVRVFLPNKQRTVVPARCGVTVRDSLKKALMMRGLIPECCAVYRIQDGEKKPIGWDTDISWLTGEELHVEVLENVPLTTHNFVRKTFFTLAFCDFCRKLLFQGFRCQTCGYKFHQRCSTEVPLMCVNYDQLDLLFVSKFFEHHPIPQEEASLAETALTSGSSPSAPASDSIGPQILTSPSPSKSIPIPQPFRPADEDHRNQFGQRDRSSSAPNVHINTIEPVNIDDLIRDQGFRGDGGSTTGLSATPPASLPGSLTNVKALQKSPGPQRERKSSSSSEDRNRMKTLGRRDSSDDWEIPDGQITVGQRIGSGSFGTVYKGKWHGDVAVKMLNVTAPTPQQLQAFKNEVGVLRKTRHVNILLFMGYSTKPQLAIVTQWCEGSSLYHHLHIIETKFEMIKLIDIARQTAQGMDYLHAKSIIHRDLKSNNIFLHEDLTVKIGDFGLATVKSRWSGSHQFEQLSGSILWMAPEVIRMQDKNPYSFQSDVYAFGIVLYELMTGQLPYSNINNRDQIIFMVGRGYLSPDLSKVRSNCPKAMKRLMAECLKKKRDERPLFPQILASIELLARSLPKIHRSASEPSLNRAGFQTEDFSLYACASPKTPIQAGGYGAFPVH

SMILES	pIC50
Clc1cc(N2C[C@@H]3C[C@H]2CN3)ccc1-c1ccnc2c(-c3cccc4[nH]ncc34)c(-c3ccncc3)nn12 [Example 97, 7-[2-Chloro-4-((1S,4S)-2,5-diaza-bicyclo[2.2.1]hept-2-yl)-phenyl]-3-(1H-indazol-4-yl)-2-pyridin-4-yl-pyrazolo[1,5-a]pyrimidine bis-hydrochloride salt]	> 9.52
Fc1cc(N2C[C@@H]3C[C@H]2CN3)cc(F)c1-c1ccnc2c(-c3cccc4[nH]ncc34)c(-c3ccncc3)nn12 [Example 100, 7-(4-((1S,4S)-2,5-diazabicyclo[2.2.1]heptan-2-yl)-2,6-difluorophenyl)-3-(1H-indazol-4-yl)-2-(pyridin-4-yl)pyrazolo[1,5-a]pyrimidine]	> 9.70
CN1C[C@@H]2C[C@H]1CN2c1cc(F)c(-c2ccnc3c(-c4cccc5[nH]ncc45)c(-c4ccncc4)nn23)c(F)c1 [Example 101, 7-{2,6-difluoro-4-[(1S,4S)-5-methyl-2,5-diazabicyclo[2.2.1]hept-2-yl]phenyl}-3-(1H-indazol-4-yl)-2-pyridin-4-yl pyrazolo[1,5-a]pyrimidine]	> 10.00
Fc1ccc(-c2c(-c3ccncc3)nn3c(-c4ccc(N5C[C@@H]6C[C@H]5CN6)cc4)ccnc23)c2cn[nH]c12 [Example 103, 7-[4-(2,5-Diaza-bicyclo[2.2.1]hept-2-yl)-phenyl]-3-(7-fluoro-1H-indazol-4-yl)-2-pyridin-4-yl-pyrazolo[1,5-a]pyrimidine]	> 9.52
Fc1cc(N2C[C@@H]3C[C@H]2CN3)ccc1-c1ccnc2c(-c3ccc(F)c4[nH]ncc34)c(-c3ccncc3)nn12 [Example 106, 7-{4-[(1S,4S)-2,5-diazabicyclo[2.2.1]hept-2-yl]-2-fluorophenyl}-3-(7-fluoro-1H-indazol-4-yl)-2-pyridin-4-yl pyrazolo[1 5-a]pyrimidine]	> 9.52
Fc1cc(N2C[C@@H]3C[C@H]2CN3)cc(F)c1-c1ccnc2c(-c3ccc(F)c4[nH]ncc34)c(-c3ccncc3)nn12 [Example 109, 7-{4-[(1S,4S)-2,5-Diazabicyclo[2.2.1]hept-2-yl]-2,6-difluorophenyl}-3-(7-fluoro-1H-indazol-4-yl)-2-pyridin-4-yl pyrazolo[1,5-a]pyrimidine]	> 9.52
OCCN1C2CCC1CC(c1ccnc3c(-c4cccc5[nH]ncc45)c(-c4ccncc4)nn13)C2 (stereo not drawn) [Example 112, 2-{3-[3-(1H-indazol-4-yl)-2-pyridin-4-ylpyrazolo[1,5-a]pyrimidin-7-yl]-8-azabicyclo[3.2.1]oct-8-yl}ethanol]	7.64
CC(C)N1C2CCC1CC(c1ccnc3c(-c4cccc5[nH]ncc45)c(-c4ccncc4)nn13)C2 (stereo not drawn) [Example 113, 3-(1H-indazol-4-yl)-7-(8-isopropyl-8-azabicyclo[3.2.1]oct-3-yl)-2-pyridin-4-ylpyrazolo[1,5-a]pyrimidine]	7.17
NC(=O)N1C2CCC1CC(c1ccnc3c(-c4cccc5[nH]ncc45)c(-c4ccncc4)nn13)C2 (stereo not drawn) [Example 115, 3-[3-(1H-indazol-4-yl)-2-pyridin-4-ylpyrazolo[1,5-a]pyrimidin-7-yl]-8-azabicyclo[3.2.1]octane-8-carboxamide]	8.04
N#CCN1C2CCC1CC(c1ccnc3c(-c4cccc5[nH]ncc45)c(-c4ccncc4)nn13)C2 (stereo not drawn) [Example 117, {3-[3-(1H-indazol-4-yl)-2-pyridin-4-ylpyrazolo[1,5-a]pyrimidin-7-yl]-8-azabicyclo[3.2.1]oct-8-yl}acetonitrile]	8.55
CCNC(=O)N1C2CCC1CC(c1ccnc3c(-c4cccc5[nH]ncc45)c(-c4ccncc4)nn13)C2 (stereo not drawn) [Example 118, N-ethyl-3-[3-(1H-indazol-4-yl)-2-pyridin-4-ylpyrazolo[1,5-a]pyrimidin-7-yl]-8-azabicyclo[3.2.1]octane-8-carboxamide]	8.17
CC(=O)N1C2CCC1CC(c1ccnc3c(-c4cccc5[nH]ncc45)c(-c4ccncc4)nn13)C2 (stereo not drawn) [Example 119, 7-(8-acetyl-8-azabicyclo[3.2.1]oct-3-yl)-3-(1H-indazol-4-yl)-2-pyridin-4-ylpyrazolo[1,5-a]pyrimidine]	8.04
CN(C)C(=O)N1C2CCC1CC(c1ccnc3c(-c4cccc5[nH]ncc45)c(-c4ccncc4)nn13)C2 (stereo not drawn) [Example 120, 3-[3-(1H-indazol-4-yl)-2-pyridin-4-ylpyrazolo[1,5-a]pyrimidin-7-yl]-N,N-dimethyl-8-azabicyclo[3.2.1]octane-8-carboxamide]	8.19
c1cc(-c2ccnc3c(-c4cccc5[nH]ncc45)c(-c4ccncc4)nn23)cc(N2C[C@@H]3C[C@H]2CN3)c1 [Example 124, 7-{3-[(1S,4S)-2,5-diazabicyclo[2.2.1]hept-2-yl]phenyl}-3-(1H-indazol-4-yl)-2-pyridin-4-ylpyrazolo[1,5-a]pyrimidine]	7.42

Results, then the compound that gave them:

pIC50	SMILES
> 9.52	CN1C[C@@H]2C[C@H]1CN2c1ccc(-c2ccnc3c(-c4cccc5[nH]ncc45)c(-c4ccncc4)nn23)c(Cl)c1 [Example 98, 7-[2-Chloro-4-((1S,4S)-5-methyl-2,5-diaza-bicyclo[2.2.1]hept-2-yl)-phenyl]-3-(1H-indazol-4-yl)-2-pyridin-4-yl-pyrazolo[1,5-a]pyrimidine]
8.80	CC(C)(C)OC(=O)N1C[C@@H]2C[C@H]1CN2c1cc(F)c(-c2ccnc3c(-c4cccc5[nH]ncc45)c(-c4ccncc4)nn23)c(F)c1 [Example 99, tert-butyl(1S,4S)-5-{3,5-difluoro-4-[3-(1H-indazol-4-yl)-2-pyridin-4-ylpyrazolo[1,5-a]pyrimidin-7-yl]phenyl}-2,5-diazabicyclo[2.2.1]heptane-2-carboxylate]
8.69	CC(C)(C)OC(=O)N1C[C@@H]2C[C@H]1CN2c1ccc(-c2ccnc3c(-c4ccc(F)c5[nH]ncc45)c(-c4ccncc4)nn23)cc1 [Example 102, tert-Butyl(1S,4S)-5-{4-[3-(7-fluoro-1H-indazol-4-yl)-2-pyridin-4-ylpyrazolo[1,5-a]pyrimidin-7-yl]phenyl}-2,5-diazabicyclo[2.2.1]heptane-2-carboxylate]
9.62	CN1C[C@@H]2C[C@H]1CN2c1ccc(-c2ccnc3c(-c4ccc(F)c5[nH]ncc45)c(-c4ccncc4)nn23)cc1 [Example 104, 3-(7-fluoro-1H-indazol-4-yl)-7-{4-[(1S,4S)-5-methyl-2,5-diazabicyclo[2.2.1]hept-2-yl]phenyl}-2-pyridin-4-ylpyrazolo[1,5-a]pyrimidine hydrochloride]
> 9.52	CN1C[C@@H]2C[C@H]1CN2c1ccc(-c2ccnc3c(-c4ccc(F)c5[nH]ncc45)c(-c4ccncc4)nn23)c(F)c1 [Example 107, 3-(7-fluoro-1H-indazol-4-yl)-7-{2-fluoro-4-[(1S,4S)-5-methyl-2,5-diazabicyclo[2.2.1]hept-2-yl]phenyl}-2-pyridin-4-ylpyrazolo[1,5-a]pyrimidine]
> 10.00	CN1C[C@@H]2C[C@H]1CN2c1cc(F)c(-c2ccnc3c(-c4ccc(F)c5[nH]ncc45)c(-c4ccncc4)nn23)c(F)c1 [Example 110, 7-{2,6-Difluoro-4-[(1S,4S)-5-methyl-2,5-diazabicyclo[2.2.1]hept-2-yl]phenyl}-3-(7-fluoro-1H-indazol-4-yl)-2-pyridin-4-yl pyrazolo[1,5-a]pyrimidine]
7.21	CN(C)CC(=O)N1C2CCC1CC(c1ccnc3c(-c4cccc5[nH]ncc45)c(-c4ccncc4)nn13)C2 (stereo not drawn) [Example 116, 2-{3-[3-(1H-indazol-4-yl)-2-pyridin-4-ylpyrazolo[1,5-a]pyrimidin-7-yl]-8-azabicyclo[3.2.1]oct-8-yl}-N,N-dimethyl-2-oxoethanamine]
< 7.00	COc1cc(-c2c(-c3ccncc3)nn3c(CN4C[C@@H]5C[C@H]4CN5C(=O)OC(C)(C)C)ccnc23)ccc1Cl [Example 121, tert-butyl (1S,4S)-5-{[3-(4-chloro-3-methoxyphenyl)-2-pyridin-4-ylpyrazolo[1,5-a]pyrimidin-7-yl]methyl}-2,5-diazabicyclo[2.2.1]heptane-2-carboxylate]
7.72	CC(C)(C)OC(=O)N1C[C@@H]2C[C@H]1CN2c1ccc(-c2ccn3nc(-c4ccncc4)c(-c4ccc(F)c5[nH]ncc45)c3n2)cc1 [Example 122, tert-butyl (1S,4S)-5-{4-[3-(7-fluoro-1H-indazol-4-yl)-2-pyridin-4-ylpyrazolo[1,5-a]pyrimidin-5-yl]phenyl}-2,5-diazabicyclo[2.2.1]heptane-2-carboxylate]
7.35	CC(C)(C)OC(=O)N1C[C@@H]2C[C@H]1CN2c1ccc(-c2ccnc3c(-c4ccc(Cl)c5[nH]ncc45)c(-c4ccncc4)nn23)cc1 [Example 125, tert-butyl (1S,4S)-5-{4-[3-(7-chloro-1H-indazol-4-yl)-2-pyridin-4-ylpyrazolo[1,5-a]pyrimidin-7-yl]phenyl}-2,5-diazabicyclo[2.2.1]heptane-2-carboxylate]
7.21	CN1C[C@@H]2C[C@H]1CN2c1cccc(-c2ccnc3c(-c4cccc5[nH]ncc45)c(-c4ccncc4)nn23)c1 [Example 126, 3-(1H-indazol-4-yl)-7-{3-[(1S,4S)-5-methyl-2,5-diazabicyclo[2.2.1]hept-2-yl]phenyl}-2-pyridin-4-ylpyrazolo[1,5-a]pyrimidine]
7.50	Clc1ccc(-c2c(-c3ccncc3)nn3c(-c4ccc(N5C[C@@H]6C[C@H]5CN6)cc4)ccnc23)c2cn[nH]c12 [Example 127, 3-(7-chloro-1H-indazol-4-yl)-7-{4-[(1S,4S)-2,5-diazabicyclo[2.2.1]hept-2-yl]phenyl}-2-pyridin-4-ylpyrazolo[1,5-a]pyrimidine]
7.40	CC(C)(C)OC(=O)N1CCC[C@H]1C(=O)N1C2CCC1CC(c1ccnc3c(-c4cccc5[nH]ncc45)c(-c4ccncc4)nn13)C2 (stereo partly drawn) [Example 128, tert-butyl (2S)-2-({3-[3-(1H-indazol-4-yl)-2-pyridin-4-ylpyrazolo[1,5-a]pyrimidin-7-yl]-8-azabicyclo[3.2.1]oct-8-yl}carbonyl)pyrrolidine-1-carboxylate]
